Laboratory results as given in patent US5319139A, “Naphthalene derivatives” (Eisai Co. Ltd., priority 1990, dated 1994).

Experiments:
[1] = system: PGE2 production from synovial cells of rat; experiment: Activity against the PGE2 production from cultured synovial cell of rat; format: cell-based, rat (Lewis male); settings: 24 h, cultured rat synovial cells stimulated with neutrophil-originating factor (IL-1-like factor), PGE2 after one day by radioimmunoassay, read-out: Inhibitory activity against PGE2 production from synovial cells of rat IC50
Procedure: Activity against the PGE2 production from cultured synovial cell of rat
A synovial membrane taken out of the knee joint of a Lewis male rat was treated with collagenase-trypsin to separate off synovial cells. A test compound was added to a system prepared by the subculture of the synovial cells. The cells were stimulated with a neutrophil-originating factor (IL-1-like factor) to induce PGE2 production. After one day, the amount of PGE2 liberated into the culture medium was determined by radioimmunoassay (see R. Hashida et al., Prostaglandins, 27 (1984), 697).

[2] = system: LTB4 production from human neutrophil; experiment: Activity against LTB4 production from human neutrophil; format: cell-based; settings: human peripheral blood neutrophils, preincubated 37° C. 5 minutes, calcium ionophore A23187 2 μg/ml, 10 minutes, radioimmunoassay, read-out: Inhibitory activity against LTB4 production from human neutrophil IC50
Procedure: Activity against LTB4 production from human neutrophil
A test compound was added to a suspension of neutrophil separated from the human peripheral blood and the obtained mixture was preincubated at 37° C. for 5 minutes, followed by the addition of calcium ionophore A23187 in an amount of 2 μg/ml. After 10 minutes, the obtained mixture was cooled to stop the reaction. The amount of LTB4 contained in the supernatant of the reaction mixture was determined by radioimmunoassay (see H. Shirota et al., Arzneim Forsol Drug Res., 37 (1987) 930).

Row | Compound | IC50 [1] [µM] | IC50 [2] [µM]
1 | C=CC/C=C(\C(=O)O)c1cc(OC)c(O)c2c(Cc3ccccc3)cccc12 [Example 5, (Z)-2-(5-Benzyl-4-hydroxy-3-methoxy-1-naphthyl)-2,5-hexadienoic acid] | 1.64 | 0.51
2 | CC/C=C(\C(=O)O)c1cc(OC)c(O)c2c(Cc3ccccc3)cccc12 [Example 2, (Z)-2-(5-Benzyl-4-hydroxy-3-methoxy-1-naphthyl)-2-pentenoic acid] | 0.62 | 0.32
3 | CCC/C=C(\C(=O)O)c1cc(OC)c(O)c2c(Cc3ccccc3)cccc12 [Example 3, (Z)-2-(5-Benzyl-4-hydroxy-3-methoxy-1-naphthyl)-2-hexenoic acid] | 1.45 | 0.52
4 | COc1cc(/C(=C/C(C)C)C(=O)O)c2cccc(Cc3ccccc3)c2c1O [Example 4, (Z)-2-(5-Benzyl-4-hydroxy-3-methoxy-1-naphthyl)-4-methyl-2-pentenoic acid] | 2.76 | 1.68
5 | CCCC/C=C(\C(=O)O)c1cc(OC)c(O)c2c(Cc3ccccc3)cccc12 [Example 7, (Z)-2-(5-benzyl-4-hydroxy-3-methoxy-1-naphthyl)-2-heptenoic acid] | 3.1 | > 10
6 | C/C=C(\C(=O)O)c1cc(OC)c(O)c2c(Cc3ccccc3)cccc12 [Example 1, (Z)-2-(5-Benzyl-4-hydroxy-3-methoxy-1-naphthyl)-2-butenoic acid] | 0.42 | 0.51

Other lines, results leading:

Row | IC50 [1] [µM] | IC50 [2] [µM] | Compound
7 | 2.04 | 3.16 | C/C=C(/C(=O)O)c1cc(OC)c(O)c2c(Cc3ccccc3)cccc12 [Example 40, (E)-2-(5-Benzyl-4-hydroxy-3-methoxy-1-naphthyl)-2-butenoic acid]
8 | 3.35 | 0.83 | COc1cc(/C(=C/C(C)(C)C)C(=O)O)c2cccc(Cc3ccccc3)c2c1O [Example 13, (Z)-2-(5-benzyl-4-hydroxy-3-methoxy-1-naphthyl)-4,4-dimethyl-2-pentenoic acid]
9 | 0.28 | 2.35 | COc1cc(C(C(=O)O)=C(Cl)Cl)c2cccc(Cc3ccccc3)c2c1O [Example 55, 2-(5-Benzyl-4-hydroxy-3-methoxy-1-naphthyl)-3,3-dichloro-2-propenoic acid]
10 | 2.1 | 1.86 | COc1cc(/C(=C/c2ccccc2)C(=O)O)c2cccc(Cc3ccccc3)c2c1O [Example 10, (Z)-2-(5-benzyl-4-hydroxy-3-methoxy-1-naphthyl)-3-phenyl-2-propenoic acid]
11 | 1.07 | 0.73 | COc1cc(C(C(=O)O)=C(C)C)c2cccc(Cc3ccccc3)c2c1O [Example 15, 2-(5-benzyl-4-hydroxy-3-methoxy-1-naphthyl)-3-methyl-2-butenoic acid]
12 | 3.23 | 0.72 | C=C(C(=O)O)c1cc(OC)c(O)c2c(Cc3ccccc3)cccc12 [Example 14, 2-(5-benzyl-4-hydroxy-3-methoxy-1-naphthyl)-2-propenoic acid]
13 | 1.88 | 1.09 | COc1cc(/C(=C/Cc2ccccc2)C(=O)O)c2cccc(Cc3ccccc3)c2c1O [Example 11, (Z)-2-(5-benzyl-4-hydroxy-3-methoxy-1-naphthyl)-4-phenyl-2-butenoic acid]
14 | 3.54 | 10 | COc1cc(/C(=C/C2CCCCC2)C(=O)O)c2cccc(Cc3ccccc3)c2c1O [Example 12, (Z)-2-(5-benzyl-4-hydroxy-3-methoxy-1-naphthyl)-3-cyclohexyl-2-propenoic acid]
